Measurements as given in patent publication US9833497B2, “Human originated EGF domain proteins and use of the same” (CHENGDU SOURCEBIO LIMITED-LIABILITY COMPANY, priority 2013, dated 2017).

How the values were obtained:
Format in all cases: cell-based
[1] = tested on: E. coli DH5α; test: Antibacterial activity: MIC and growth curve against E. coli DH5α in 96-well plate; settings: minimal inhibitory concentration against E. coli DH5α; 96-well plate, 5×10^5 CFU/mL, 37° C., judged after 8 h
In short: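 Log-phase bacteria (OD600 ~0.5) resuspended in LB at 5×10^5 CFU/mL, exposed to recombinant protein at 50, 25, 12.5 μg/mL final in triplicate, 37 °C shaking at 175 rpm. OD600 read every 30 min; MIC is lowest concentration showing no growth.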

[2] = tested on: E. coli BL21; test: MIC against Gram-negative bacteria: E. coli BL21
In short: (§1)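 Read-out is absence of bacterial growth, with MIC set at the lowest recombinant protein concentration achieving it. Bacteria, pre-grown in LB to McFarland 0.5 and resuspended, were exposed at 5×10^5 CFU/mL to two-fold diluted human EGF domain proteins in triplicate at 37° C, 175 rpm.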

[3] = tested on: Pseudomonas aeruginosa; test: MIC against Gram-negative bacteria: Pseudomonas aeruginosa; settings: for MIC against P. aeruginosa: Pseudomonas aeruginosa
In short: as §1

[4] = tested on: Klebsiella pneumonia; test: MIC against Gram-negative bacteria: Klebsiella pneumonia; settings: for MIC against K. pneumonia: Klebsiella pneumonia
In short: as §1

[5] = tested on: Enterobacter cloacae; test: MIC against Gram-negative bacteria: Enterobacter cloacae; settings: for MIC against E. cloacae: Enterobacter cloacae
In short: as §1

[6] = tested on: Aeromonas hydrophila; test: MIC against Gram-negative bacteria: Aeromonas hydrophila; settings: for MIC against A. hydrophila: Aeromonas hydrophila
In short: as §1

[7] = tested on: Citrobacter diversus; test: MIC against Gram-negative bacteria: Citrobacter diversus; settings: for MIC against C. diversus: Citrobacter diversus
In short: as §1

[8] = tested on: Moraxella catarrhalis; test: MIC against Gram-negative bacteria: Moraxella catarrhalis; settings: for MIC against M. catarrhalis: Moraxella catarrhalis
In short: as §1

[9] = tested on: Proteus mirabilis; test: MIC against Gram-negative bacteria: Proteus mirabilis; settings: for MIC against P. mirabilis: Proteus mirabilis
In short: as §1

[10] = tested on: Proteus vulgaris; test: MIC against Gram-negative bacteria: Proteus vulgaris; settings: for MIC against P. vulgaris: Proteus vulgaris
In short: as §1

[11] = tested on: Serratia marcescens; test: MIC against Gram-negative bacteria: Serratia marcescens; settings: for MIC against S. marcescens: Serratia marcescens
In short: as §1

[12] = E. coli BL21, 10 h cultivation at 37° C., 5×10^5 CFU/mL
[13] = P. aeruginosa, 10 h cultivation at 37° C., 5×10^5 CFU/mL
[14] = K. pneumonia, 10 h cultivation at 37° C., 5×10^5 CFU/mL
[15] = E. cloacae, 10 h cultivation at 37° C., 5×10^5 CFU/mL
[16] = A. hydrophila, 10 h cultivation at 37° C., 5×10^5 CFU/mL
[17] = C. diversus, 10 h cultivation at 37° C., 5×10^5 CFU/mL
[18] = M. catarrhalis, 10 h cultivation at 37° C., 5×10^5 CFU/mL
[19] = P. mirabilis, 10 h cultivation at 37° C., 5×10^5 CFU/mL
[20] = P. vulgaris, 10 h cultivation at 37° C., 5×10^5 CFU/mL
[21] = S. marcescens, 10 h cultivation at 37° C., 5×10^5 CFU/mL
[22] = 96-well plate, 5×10^5 CFU/mL, 37° C., 10 h
[23] = E. coli BL21, 5×10^5 CFU/mL, 10 h cultivation at 37° C.
[24] = 5×10^5 CFU/mL, 10 h cultivation at 37° C.

Question: Which MIC [1] does the source give for “PRT884 (HSDPCENNPCLHGGTCNANGTMYGCSCDQGFAGENCE; listed as Homo sapiens)” here?
Answer: 12.5 µg/mL

Question: And the “MIC (μg/mL) E. coli BL21” value [2, 12]?
Answer: 12.5 µg/mL

Question: What about the “MIC (μg/mL) P. aeruginosa” value [3, 13] of the same substance?
Answer: 12.5 µg/mL

Question: And the “MIC (μg/mL) K. pneumonia” value [4, 14]?
Answer: 12.5 µg/mL

Question: And the “MIC (μg/mL) E. cloacae” value [5, 15]?
Answer: 12.5 µg/mL

Question: What about the “MIC (μg/mL) A. hydrophila” value [6, 16] of the same substance?
Answer: 12.5 µg/mL

Question: What about the “MIC (μg/mL) C. diversus” value [7, 17] of the same substance?
Answer: 12.5 µg/mL

Question: And the “MIC (μg/mL) M. catarrhalis” value [8, 18]?
Answer: 12.5 µg/mL

Question: What about the “MIC (μg/mL) P. mirabilis” value [9, 19] of the same substance?
Answer: 25 µg/mL

Question: What about the “MIC (μg/mL) P. vulgaris” value [10, 20] of the same substance?
Answer: 50 µg/mL

Question: What about the “MIC (μg/mL) S. marcescens” value [11, 21] of the same substance?
Answer: 25 µg/mL

Question: With “PRT207 (RSSNCSAQCHNHGVCNHKQECHCHAGWAPPHCA; listed as Homo sapiens)” as the substance, how does the MIC [1] read?
Answer: 12.5 µg/mL

Question: And the “MIC (μg/mL) E. coli BL21” value [2, 12]?
Answer: 50 µg/mL

Question: And the “MIC (μg/mL) P. aeruginosa” value [3, 13]?
Answer: 12.5 µg/mL

Question: What about the “MIC (μg/mL) K. pneumonia” value [4, 14] of the same substance?
Answer: 50 µg/mL

Question: What about the “MIC (μg/mL) E. cloacae” value [5, 15] of the same substance?
Answer: 12.5 µg/mL

Question: And the “MIC (μg/mL) A. hydrophila” value [6, 16]?
Answer: 50 µg/mL

Question: What about the “MIC (μg/mL) C. diversus” value [7, 17] of the same substance?
Answer: 12.5 µg/mL

Question: What about the “MIC (μg/mL) M. catarrhalis” value [8, 18] of the same substance?
Answer: 50 µg/mL

Question: What about the “MIC (μg/mL) P. mirabilis” value [9, 19] of the same substance?
Answer: 12.5 µg/mL

Question: What about the “MIC (μg/mL) P. vulgaris” value [10, 20] of the same substance?
Answer: 25 µg/mL

Question: And the “MIC (μg/mL) S. marcescens” value [11, 21]?
Answer: 50 µg/mL

Question: “PRT690 (EAEECGILDGCTNGRCVRVPEGFTCRCFDGYRLDMTRMACV; listed as Homo sapiens)” was tested. Which MIC [1] did it give?
Answer: 25 µg/mL

Question: What about the “MIC E. coli BL21” value [2, 22] of the same substance?
Answer: 50 µg/mL

Question: What about the “MIC P. aeruginosa” value [3, 22] of the same substance?
Answer: 25 µg/mL

Question: What about the “MIC K. pneumonia” value [4, 22] of the same substance?
Answer: 25 µg/mL

Question: What about the “MIC E. cloacae” value [5, 22] of the same substance?
Answer: 12.5 µg/mL

Question: And the “MIC A. hydrophila” value [6, 22]?
Answer: 25 µg/mL

Question: What about the “MIC C. diversus” value [7, 22] of the same substance?
Answer: 25 µg/mL

Question: And the “MIC M. catarrhalis” value [8, 22]?
Answer: 50 µg/mL

Question: And the “MIC P. mirabilis” value [9, 22]?
Answer: 12.5 µg/mL

Question: What about the “MIC P. vulgaris” value [10, 22] of the same substance?
Answer: 50 µg/mL

Question: And the “MIC S. marcescens” value [11, 22]?
Answer: 12.5 µg/mL

Question: How did the MIC [1] turn out when “PRT1441 (EVDECSWPDHGGCEHRCVNTLGSYKCACDPGYELAADKKMCE; listed as Homo sapiens)” was run?
Answer: 25 µg/mL

Question: What about the “MIC against E. coli BL21” value [2, 23] of the same substance?
Answer: 25 µg/mL

Question: And the “MIC against P. aeruginosa” value [3, 24]?
Answer: 12.5 µg/mL

Question: And the “MIC against K. pneumonia” value [4, 24]?
Answer: 25 µg/mL

Question: And the “MIC against E. cloacae” value [5, 24]?
Answer: 12.5 µg/mL

Question: What about the “MIC against A. hydrophila” value [6, 24] of the same substance?
Answer: 25 µg/mL

Question: And the “MIC against C. diversus” value [7, 24]?
Answer: 100 µg/mL

Question: What about the “MIC against M. catarrhalis” value [8, 24] of the same substance?
Answer: 12.5 µg/mL

Question: What about the “MIC against P. mirabilis” value [9, 24] of the same substance?
Answer: 12.5 µg/mL

Question: What about the “MIC against P. vulgaris” value [10, 24] of the same substance?
Answer: 25 µg/mL

Question: What about the “MIC against S. marcescens” value [11, 24] of the same substance?
Answer: 12.5 µg/mL

Question: Which MIC [1] does the source give for “PRT745 (RQHPCAQDNGGCSHICLVKGDGTTRCSCPMHLVLLQDELSCG; listed as Homo sapiens)” here?
Answer: 50 µg/mL

Question: What about the “MIC (μg/mL) E. coli BL21” value [2, 12] of the same substance?
Answer: 25 µg/mL

Question: What about the “MIC (μg/mL) P. aeruginosa” value [3, 13] of the same substance?
Answer: 50 µg/mL

Question: What about the “MIC (μg/mL) K. pneumonia” value [4, 14] of the same substance?
Answer: 12.5 µg/mL

Question: What about the “MIC (μg/mL) E. cloacae” value [5, 15] of the same substance?
Answer: 50 µg/mL

Question: What about the “MIC (μg/mL) A. hydrophila” value [6, 16] of the same substance?
Answer: 12.5 µg/mL

Question: And the “MIC (μg/mL) C. diversus” value [7, 17]?
Answer: 50 µg/mL

Question: What about the “MIC (μg/mL) M. catarrhalis” value [8, 18] of the same substance?
Answer: 12.5 µg/mL

Question: What about the “MIC (μg/mL) P. mirabilis” value [9, 19] of the same substance?
Answer: 25 µg/mL

Question: And the “MIC (μg/mL) P. vulgaris” value [10, 20]?
Answer: 50 µg/mL

Question: What about the “MIC (μg/mL) S. marcescens” value [11, 21] of the same substance?
Answer: 25 µg/mL

Question: For “PRT1460 (CDCDTVGTRNGSILCDQIGGQCNCKRHVSGRQCNQCQNGFYNLQELDPDGCSP; listed as Homo sapiens)”, which MIC [1] is on record?
Answer: 12.5 µg/mL

Question: And the “MIC against E. coli BL21” value [2, 23]?
Answer: 25 µg/mL

Question: And the “MIC against P. aeruginosa” value [3, 24]?
Answer: 25 µg/mL

Question: And the “MIC against K. pneumonia” value [4, 24]?
Answer: 50 µg/mL

Question: And the “MIC against E. cloacae” value [5, 24]?
Answer: 25 µg/mL

Question: What about the “MIC against A. hydrophila” value [6, 24] of the same substance?
Answer: 12.5 µg/mL

Question: What about the “MIC against C. diversus” value [7, 24] of the same substance?
Answer: 25 µg/mL

Question: What about the “MIC against M. catarrhalis” value [8, 24] of the same substance?
Answer: 50 µg/mL

Question: What about the “MIC against P. mirabilis” value [9, 24] of the same substance?
Answer: 12.5 µg/mL

Question: And the “MIC against P. vulgaris” value [10, 24]?
Answer: 25 µg/mL

Question: What about the “MIC against S. marcescens” value [11, 24] of the same substance?
Answer: 50 µg/mL

Question: For “PRT963 (QVDECRSQPCRHGGKCLDLVDKYLCRCPSGTTGVNCE; listed as Homo sapiens)”, which MIC [1] is on record?
Answer: 25 µg/mL

Question: What about the MIC ([2]; E. coli BL21, 10 h cultivation at 37° C.) of the same substance?
Answer: 50 µg/mL

Question: And the MIC ([3]; P. aeruginosa, 10 h cultivation at 37° C.)?
Answer: 25 µg/mL

Question: What about the MIC ([4]; K. pneumonia, 10 h cultivation at 37° C.) of the same substance?
Answer: 12.5 µg/mL

Question: What about the MIC ([5]; E. cloacae, 10 h cultivation at 37° C.) of the same substance?
Answer: 25 µg/mL

Question: And the MIC ([6]; A. hydrophila, 10 h cultivation at 37° C.)?
Answer: 50 µg/mL

Question: And the MIC ([7]; C. diversus, 10 h cultivation at 37° C.)?
Answer: 25 µg/mL

Question: And the MIC ([8]; M. catarrhalis, 10 h cultivation at 37° C.)?
Answer: 12.5 µg/mL

Question: And the MIC ([9]; P. mirabilis, 10 h cultivation at 37° C.)?
Answer: 50 µg/mL

Question: What about the MIC ([10]; P. vulgaris, 10 h cultivation at 37° C.) of the same substance?
Answer: 25 µg/mL

Question: And the MIC ([11]; S. marcescens, 10 h cultivation at 37° C.)?
Answer: 25 µg/mL
